Assays:
[1] = biological target: T1, Replicase polyprotein 1ab (Severe acute respiratory syndrome coronavirus 2, UniProt P0DTD1); assay: Binding affinity to SARS-CoV-2 3CL protease at 1.875 to 50 uM in presence of wallichins D by SPR assay
SARS-CoV-2 [2] = assay: (§1) Antiviral activity against SARS-Cov-2 infected in african green monkey Vero E6 cells assessed as inhibition of viral replication pretreated with compound for 1 hr followed by viral infection for 2 hrs measured after 24 hrs post infection in presence of wallichins D by qRt-PCR analysis; type: functional, organism-based; settings: Severe acute respiratory syndrome coronavirus 2, Vero C1008
[3] = Cytotoxicity against human Calu-3 cells by CCK-8 assay; type: toxicity, cell-based
SARS-CoV-2 [4] = assay: Antiviral activity against SARS-Cov-2 infected in human Calu-3 cells assessed as inhibition of viral replication pretreated with compound for 1 hr followed by viral infection for 2 hrs measured after 24 hrs post infection in presence of wallichins D by qRt-PCR analysis; type: functional, organism-based; settings: Severe acute respiratory syndrome coronavirus 2, Calu-3
[5] = Selectivity index, ratio of CC50 for African green monkey Vero cells in presence of wallichins D to EC50 for SARS-Cov-2 infected in african green monkey Vero E6 cells assessed as inhibition of viral replication in presence of wallichins D; type: toxicity, Vero C1008; settings: read-out: Selectivity Index
[6] = biological target: T1, Replicase polyprotein 1ab; assay: Binding affinity to SARS-CoV-2 3CL protease at 1.875 to 50 uM by SPR assay
SARS-CoV-2 [7] = assay: Antiviral activity against SARS CoV-2 VSV-delG pseudotype infected in african green monkey Vero E6 at 100 uM measured after 15 hrs post infection relative to control; type: functional; settings: Severe acute respiratory syndrome coronavirus 2, Vero C1008
[8] = Cytotoxicity against human Calu-3 cells in presence of wallichins D by CCK-8 assay; type: toxicity, cell-based
[9] = Cytotoxicity against African green monkey Vero E6 cells in presence of wallichins D by CCK-8 assay; type: toxicity, cell-based, Vero C1008; settings: chlorocebus sabaeus
Spike glycoprotein [10] = biological target: T2, Spike glycoprotein (Severe acute respiratory syndrome coronavirus 2, UniProt P0DTC2); assay: Binding affinity to SARS-CoV-2 Spike glycoprotein receptor-binding domain at 1.875 to 50 uM by SPR assay
[11] = biological target: T1, Replicase polyprotein 1ab; assay: Inhibition of SARS-CoV-2 3CL protease using MCA-AVLQSGFR-Lys(Dnp)-Lys-NH2 as flurogenic substrate pre-incubated with compound for 10 mins followed by substrate addition measured after 10 mins by FRET assay
SARS-CoV-2 [12] = assay: Antiviral activity against SARS-Cov-2 infected in human Calu-3 cells assessed as inhibition of viral replication pretreated with compound for 1 hr followed by viral infection for 2 hrs measured after 24 hrs post infection by qRt-PCR analysis; type: functional, organism-based; settings: Severe acute respiratory syndrome coronavirus 2, Calu-3
Spike glycoprotein [13] = biological target: T2, Spike glycoprotein; assay: Binding affinity to SARS-CoV-2 Spike glycoprotein receptor-binding domain at 1.875 to 50 uM in presence of wallichins D by SPR assay
[14] = Selectivity index, ratio for CC50 of African green monkey Vero E6 cells to EC50 for SARS-Cov-2 infected in african monkey Vero E6 cells; type: toxicity, Vero C1008; settings: read-out: Selectivity Index
[15] = biological target: T1, Replicase polyprotein 1ab; assay: Inhibition of SARS-CoV-2 3CL protease using MCA-AVLQSGFR-Lys(Dnp)-Lys-NH2 as flurogenic substrate pre-incubated with compound for 10 mins followed by substrate addition measured after 10 mins in presence of wallichins D by FRET assay
[16] = Cytotoxicity against African green monkey Vero E6 cells by CCK-8 assay; type: toxicity, cell-based, Vero C1008; settings: chlorocebus sabaeus
SARS-CoV-2 [17] = assay: as §1, with “replication at 10 uM” for “replication”, “analysis relative to control” for “analysis”; type: functional; settings: Severe acute respiratory syndrome coronavirus 2, Vero C1008, time 27 hrs
SARS-CoV-2 [18] = assay: Antiviral activity against SARS-Cov-2 infected in african green monkey Vero E6 cells assessed as inhibition of viral replication pretreated with compound for 1 hr followed by viral infection for 2 hrs measured after 24 hrs post infection by qRt-PCR analysis; type: functional, organism-based; settings: Severe acute respiratory syndrome coronavirus 2, Vero C1008
SARS-CoV-2 [19] = assay: (§2) Antiviral activity against SARS-Cov-2 infected in african green monkey Vero E6 cells assessed as inhibition of viral replication at 10 uM pretreated with compound for 1 hr followed by viral infection for 2 hrs measured after 24 hrs post infection by qRt-PCR analysis relative to control; type: functional; settings: Severe acute respiratory syndrome coronavirus 2, Vero C1008, time 27 hrs
[20] = Selectivity index, ratio of CC50 for African green monkey Vero cells in presence of […] to EC50 for SARS-Cov-2 infected in african green monkey Vero E6 cells assessed as inhibition of viral replication in presence of wallichins C; type: toxicity, Vero C1008; settings: read-out: Selectivity Index
[21] = biological target: T1, Replicase polyprotein 1ab; assay: Binding affinity to SARS-CoV-2 3CL protease at 1.875 to 50 uM in presence of wallichins C by SPR assay
[22] = biological target: T1, Replicase polyprotein 1ab; assay: Inhibition of SARS-CoV-2 3CL protease using MCA-AVLQSGFR-Lys(Dnp)-Lys-NH2 as flurogenic substrate pre-incubated with compound for 10 mins followed by substrate addition measured after 10 mins in presence of wallichins C by FRET assay
SARS-CoV-2 [23] = assay: Antiviral activity against SARS-Cov-2 infected in african green monkey Vero E6 cells assessed as inhibition of viral replication pretreated with compound for 1 hr followed by viral infection for 2 hrs measured after 24 hrs post infection in presence of wallichins C by qRt-PCR analysis; type: functional, organism-based; settings: Severe acute respiratory syndrome coronavirus 2, Vero C1008
[24] = Cytotoxicity against African green monkey Vero E6 cells in presence of wallichins C by CCK-8 assay; type: toxicity, cell-based, Vero C1008; settings: chlorocebus sabaeus
SARS-CoV-2 [25] = assay: Antiviral activity against SARS-Cov-2 infected in human Calu-3 cells assessed as inhibition of viral replication pretreated with compound for 1 hr followed by viral infection for 2 hrs measured after 24 hrs post infection in presence of wallichins C by qRt-PCR analysis; type: functional, organism-based; settings: Severe acute respiratory syndrome coronavirus 2, Calu-3
Spike glycoprotein [26] = biological target: T2, Spike glycoprotein; assay: Binding affinity to SARS-CoV-2 Spike glycoprotein receptor-binding domain at 1.875 to 50 uM in presence of wallichins C by SPR assay
SARS-CoV-2 [27] = assay: as §2, with “post infection in presence of wallichins C by qRt-PCR” for “post infection by qRt-PCR”; type: functional; settings: Severe acute respiratory syndrome coronavirus 2, Vero C1008, time 27 hrs
[28] = Cytotoxicity against human Calu-3 cells in presence of wallichins C by CCK-8 assay; type: toxicity, cell-based

## C=C1CC[C@H]2[C@@](C)(CCC[C@]2(C)C(=O)O)[C@@H]1C/C=C(\C)[C@@H]1CCc2c(O)c(CC3C(=O)C(C(C)=O)=C(O)C(C)(C)C3O)c(O)c(C(=O)CCC)c2O1 (some centres not stated)
[1]
  Kd: 12 µM
SARS-CoV-2 [2]
  EC50: 6.8 µM
[3]
  CC50: 98.6 µM
SARS-CoV-2 [4]
  EC50: 24.8 µM
[5]
  selectivity ratio: > 27
[6]
  Kd: 16.6 µM
SARS-CoV-2 [7]
  inhibition in vivo at 100 µM: < 50%
[8]
  CC50: 72.4 µM
[9]
  CC50: > 140 µM
Spike glycoprotein [10]
  Kd: 91.7 µM
[11]
  IC50: 7.5 µM
SARS-CoV-2 [12]
  EC50: 20.2 µM
Spike glycoprotein [13]
  Kd: 64.7 µM
[14]
  selectivity ratio: > 35
[15]
  IC50: 5.6 µM
[16]
  CC50: > 140 µM
SARS-CoV-2 [17]
  inhibition at 10 µM: 87.7%
SARS-CoV-2 [18]
  EC50: 4.5 µM

## C=C1CC[C@H]2[C@@](C)(CCC[C@]2(C)C(=O)O)[C@@H]1C/C=C(\C)[C@H]1CCC2=C(O1)C(C)(C)C(O)=C(C(C)=O)C2=O
SARS-CoV-2 [19]
  inhibition at 10 µM: 51.7%

## C=C1CC[C@H]2[C@@](C)(CCC[C@]2(C)C(=O)O)[C@@H]1C/C=C(\C)[C@H]1CCc2c(O)c(CC3C(=O)C(C(C)=O)=C(O)C(C)(C)C3O)c(O)c(C(=O)CCC)c2O1 (some centres not stated)
[20]
  selectivity ratio: > 27
[21]
  Kd: 12 µM
[22]
  IC50: 5.6 µM
[3]
  CC50: 64.3 µM
SARS-CoV-2 [23]
  EC50: 6.8 µM
[6]
  Kd: 14.3 µM
SARS-CoV-2 [7]
  inhibition in vivo at 100 µM: < 50%
[24]
  CC50: > 140 µM
Spike glycoprotein [10]
  Kd: 67.9 µM
[11]
  IC50: 8.1 µM
SARS-CoV-2 [25]
  EC50: 24.8 µM
Spike glycoprotein [26]
  Kd: 64.7 µM
SARS-CoV-2 [12]
  EC50: 30 µM
[14]
  selectivity ratio: > 11
[16]
  CC50: > 140 µM
SARS-CoV-2 [27]
  inhibition at 10 µM: 87.7%
[28]
  CC50: 72.4 µM
SARS-CoV-2 [18]
  EC50: 12.1 µM

Source: ChEMBL document CHEMBL5131463, “Target-Based Virtual Screening and LC/MS-Guided Isolation Procedure for Identifying Phloroglucinol-Terpenoid Inhibitors of SARS-CoV-2” (J Nat Prod, 2022)
